Test results taken from ChEMBL document CHEMBL1201862, “PubChem BioAssay data set” (2004).
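Following 48 hours of exposure in 96-well plates, responses at five concentrations were used to interpolate endpoints linearly. Here, GI50 denotes the concentration required for 50% inhibition of growth.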 The source made the active and inactive calls. Rule as the data show it: active = GI50 up to about 1.1 µM and inactive = higher.

Experiments:
Experiment in all cases: NCI anticancer screen, dose series, 48 h
SNB-19 = system: SNB-19
DLD-1 = system: DLD-1
HOP-18 = system: HOP-18
OVCAR-5 = system: OVCAR-5
DMS-273 = system: DMS-273
K562 = system: K562
SK-MEL-5 = system: SK-MEL-5
HOP-62 = system: HOP-62
NCI-H522 = system: NCI-H522
OVCAR-8 = system: OVCAR-8
KM12 = system: KM12
HL-60 = system: HL-60
RXF 393 = system: RXF 393
COLO 205 = system: COLO 205
HCT-15 = system: HCT-15
HCT-116 = system: HCT-116
SNB-75 = system: SNB-75
UO-31 = system: UO-31
SK-MEL-28 = system: SK-MEL-28
SF-268 = system: SF-268
ACHN = system: ACHN
CCRF-CEM = system: CCRF-CEM
DMS-114 = system: DMS-114
M14 = system: M14
SK-OV-3 = system: SK-OV-3
SF-539 = system: SF-539
DU-145 = system: DU-145
NCI-H226 = system: NCI-H226
OVCAR-3 = system: OVCAR-3
UACC-257 = system: UACC-257
OVCAR-4 = system: OVCAR-4
HOP-92 = system: HOP-92
EKVX = system: EKVX
M19-MEL = system: M19-MEL
U-251 = system: U-251
A549 = system: A549
HT-29 = system: HT-29
Malme-3M = system: Malme-3M
XF498 = system: XF498
HCC 2998 = system: HCC 2998
MCF7 = system: MCF7
NCI-H460 = system: NCI-H460
MOLT-4 = system: MOLT-4
SF-295 = system: SF-295
RPMI-8226 = system: RPMI-8226
IGROV-1 = system: IGROV-1
SK-MEL-2 = system: SK-MEL-2
LXFL 529 = system: LXFL 529
KM-20L2 = system: KM-20L2
SN12C = system: SN12C
CAKI-1 = system: CAKI-1
UACC-62 = system: UACC-62
NCI-H23 = system: NCI-H23
786-0 = system: 786-0
SR = system: SR
A498 = system: A498
LOX IMVI = system: LOX IMVI
SNB-78 = system: SNB-78
PC-3 = system: PC-3
TK-10 = system: TK-10
MDA-MB-435 = system: MDA-MB-435
SW-620 = system: SW-620

With `COC1CC(C)C(OC)C2=CC(=O)C=C(NC(=O)/C(C)=C/C=C\C(C)C(OC(N)=O)/C(C)=C\C(C)C1OC)C2=O` (stereo not given) the GI50 (SNB-19) was 0.495 µM (active), the GI50 (DLD-1) was 0.804 µM (active) and the GI50 (HOP-18) was 0.179 µM (active). The GI50 (OVCAR-5) was 3.2 µM (inactive), the GI50 (DMS-273) was 0.239 µM (active) and the GI50 (K562) was 0.114 µM (active). For the same molecule, the GI50 (SK-MEL-5) was 0.804 µM (active), the GI50 (HOP-62) was 1.48 µM (inactive) and the GI50 (NCI-H522) was 0.0908 µM (active). For the same molecule, the GI50 (OVCAR-8) was 1.67 µM (inactive), the GI50 (KM12) was 0.521 µM (active) and the GI50 (HL-60) was 0.182 µM (active). The GI50 (RXF 393) was 0.337 µM (active), the GI50 (COLO 205) was 0.0414 µM (active) and the GI50 (HCT-15) was 1330 nM. The GI50 (HCT-116) was 0.313 µM (active), the GI50 (SNB-75) was 0.762 µM (active) and the GI50 (UO-31) was 4.83 µM (inactive). For the same molecule, the GI50 (SK-MEL-28) was 0.166 µM (active), the GI50 (SF-268) was 1.31 µM (inactive) and the GI50 (ACHN) was 1.25 µM (inactive). The GI50 (CCRF-CEM) was 0.117 µM (active), the GI50 (DMS-114) was 0.403 µM (active) and the GI50 (M14) was 0.589 µM (active). The GI50 (SK-OV-3) was 0.357 µM (active), the GI50 (SF-539) was 0.355 µM (active) and the GI50 (DU-145) was 643 nM (active). The GI50 (NCI-H226) was 6.15 µM (inactive), the GI50 (OVCAR-3) was 0.313 µM (active) and the GI50 (UACC-257) was 0.261 µM (active). For the same molecule, the GI50 (OVCAR-4) was 0.834 µM (active), the GI50 (HOP-92) was 0.313 µM (active) and the GI50 (EKVX) was 11 µM (inactive). For the same molecule, the GI50 (M19-MEL) was 0.441 µM (active), the GI50 (U-251) was 0.37 µM (active) and the GI50 (A549) was 2.9 µM (inactive). The GI50 (HT-29) was 0.244 µM (active), the GI50 (Malme-3M) was 0.334 µM (active) and the GI50 (XF498) was 0.681 µM (active). For the same molecule, the GI50 (HCC 2998) was 0.665 µM (active), the GI50 (MCF7) was 62.1 nM (active) and the GI50 (NCI-H460) was 0.422 µM (active). The GI50 (MOLT-4) was 0.0535 µM (active), the GI50 (SF-295) was 1.07 µM (active) and the GI50 (RPMI-8226) was 0.313 µM (active). The GI50 (IGROV-1) was 2.97 µM (inactive), the GI50 (SK-MEL-2) was 0.525 µM (active) and the GI50 (LXFL 529) was 0.191 µM (active). For the same molecule, the GI50 (KM-20L2) was 0.202 µM (active), the GI50 (SN12C) was 0.296 µM (active) and the GI50 (CAKI-1) was 2.52 µM (inactive). The GI50 (UACC-62) was 0.492 µM (active), the GI50 (NCI-H23) was 0.447 µM (active) and the GI50 (786-0) was 0.902 µM (active). For the same molecule, the GI50 (SR) was 0.0682 µM (active), the GI50 (A498) was 11.7 µM (inactive) and the GI50 (LOX IMVI) was 0.379 µM (active). The GI50 (SNB-78) was 1.71 µM (inactive), the GI50 (PC-3) was 11.5 µM (inactive) and the GI50 (TK-10) was 2.09 µM (inactive). The GI50 (MDA-MB-435) was 72.1 nM (active) and the GI50 (SW-620) was 0.0485 µM (active).

With `O=c1[nH]cnc(NC2C=C(CO)C(O)C2O)c1[N+](=O)[O-]` (stereo not given) the GI50 (SNB-19) was > 100 µM (inactive), the GI50 (DLD-1) was > 58.6 µM (inactive) and the GI50 (HOP-18) was > 100 µM (inactive). The GI50 (OVCAR-5) was > 100 µM (inactive), the GI50 (DMS-273) was > 47.2 µM (inactive) and the GI50 (K562) was > 100 µM (inactive). The GI50 (SK-MEL-5) was > 100 µM (inactive), the GI50 (HOP-62) was > 100 µM (inactive) and the GI50 (NCI-H522) was > 100 µM (inactive). The GI50 (OVCAR-8) was > 100 µM (inactive), the GI50 (KM12) was > 100 µM (inactive) and the GI50 (HL-60) was > 37.2 µM (inactive). The GI50 (RXF 393) was > 100 µM (inactive), the GI50 (COLO 205) was > 62.7 µM (inactive) and the GI50 (HCT-15) was > 40300 nM. For the same molecule, the GI50 (HCT-116) was > 37.7 µM (inactive), the GI50 (SNB-75) was > 100 µM (inactive) and the GI50 (UO-31) was > 100 µM (inactive). The GI50 (SK-MEL-28) was > 100 µM (inactive), the GI50 (SF-268) was > 100 µM (inactive) and the GI50 (ACHN) was > 100 µM (inactive). The GI50 (CCRF-CEM) was > 71.1 µM (inactive), the GI50 (DMS-114) was > 51.3 µM (inactive) and the GI50 (M14) was > 100 µM (inactive). The GI50 (SK-OV-3) was > 100 µM (inactive), the GI50 (SF-539) was > 100 µM (inactive) and the GI50 (NCI-H226) was > 100 µM (inactive). For the same molecule, the GI50 (OVCAR-3) was > 100 µM (inactive), the GI50 (UACC-257) was > 100 µM (inactive) and the GI50 (OVCAR-4) was > 100 µM (inactive). For the same molecule, the GI50 (HOP-92) was > 100 µM (inactive), the GI50 (EKVX) was > 100 µM (inactive) and the GI50 (M19-MEL) was > 76.6 µM (inactive). The GI50 (U-251) was > 63.5 µM (inactive), the GI50 (A549) was > 83.2 µM (inactive) and the GI50 (HT-29) was > 100 µM (inactive). The GI50 (Malme-3M) was > 100 µM (inactive), the GI50 (XF498) was > 100 µM (inactive) and the GI50 (HCC 2998) was > 100 µM (inactive). The GI50 (NCI-H460) was > 40.1 µM (inactive), the GI50 (MOLT-4) was > 100 µM (inactive) and the GI50 (SF-295) was > 100 µM (inactive). The GI50 (RPMI-8226) was > 45.9 µM (inactive), the GI50 (IGROV-1) was > 100 µM (inactive) and the GI50 (SK-MEL-2) was > 100 µM (inactive). The GI50 (LXFL 529) was > 100 µM (inactive), the GI50 (KM-20L2) was > 100 µM (inactive) and the GI50 (SN12C) was > 100 µM (inactive). For the same molecule, the GI50 (CAKI-1) was > 100 µM (inactive), the GI50 (UACC-62) was > 100 µM (inactive) and the GI50 (NCI-H23) was > 100 µM (inactive). The GI50 (786-0) was > 46.2 µM (inactive), the GI50 (SR) was > 100 µM (inactive) and the GI50 (A498) was > 100 µM (inactive). The GI50 (LOX IMVI) was > 41.2 µM (inactive), the GI50 (SNB-78) was > 100 µM (inactive) and the GI50 (TK-10) was > 100 µM (inactive). The GI50 (SW-620) was > 43.2 µM (inactive).
